Holding throughout (assay type): in vivo, SD rats
The test system of one assay is sciatic nerve of the rat. As for the experimental part:
The experimental methods described in the following test examples were standard procedures unless otherwise specified. All experimental animals used in the following test examples were SD rats purchased from Hunan Slac Jingda Experimental Animal Co., Ltd. Other test materials, unless stated otherwise, were purchased from conventional biochemical reagent suppliers.
The compounds listed in Table 1 and levobupivacaine hydrochloride (positive control) were administered to three groups of rats fully acclimated to the experimental environment, with one rat per group.
Solution Preparation: 2 mg/ml Levobupivacaine Hydrochloride Injection: 2.670 ml of 7.5 mg/ml levobupivacaine hydrochloride injection (Batch No. 92S0702) was pipetted into a 10 ml volumetric flask. 0.9% NaCl solution was added until the meniscus was level with the calibration line, and the solution was inverted and mixed thoroughly, to prepare 2 mg/ml levobupivacaine hydrochloride injection. 2 mg/ml Example Compound Solution: 6.6 mg of the example compound was accurately weighed and dissolved in 3.3 ml of 0.9% NaCl solution to prepare a 2 mg/ml example compound solution.
Both the positive control and the example compound were administered to each rat at 2 mg/ml, with an administration volume of 5 ml/kg, in a single injection near the sciatic nerve of the rat. After the administration, the rat was placed on a preheated hot plate (50±0.1° C.) of an intelligent hot plate instrument. […] The maximum thermal latency was controlled at 60 s. […] Any urine or feces on the hot plate was promptly cleaned and dried before subsequent tests.
Thermal latency results were expressed as the maximum proportional effect (MPE), calculated using the following formula.
Wherein: B represented the basal thermal latency of the rats; P was the maximum thermal latency C was the observed thermal latency at the detection time point.
Measurements were considered invalid if the MPE was less than 50% of the maximum proportional effect. If two consecutive measurements yielded an MPE of less than […], the experiment was terminated.

For assay [1], the system named is rat subcutaneous infiltration model. The experiment in a line: Local anesthetic effect by subcutaneous infiltration, Von Frey needle stimulation of back skin.
Assay [2] shares this test system. The description is as above. As for the experimental part:
After shaving and disinfecting the backs of SD rats (half male and half female) weighing 190-210 grams, a circle with a diameter of approximately 1.5 cm was drawn on one side of the exposed skin. 0.5 mL of a solution containing the drug was subcutaneously injected into the skin in the center. The solution, using physiological saline as the solvent, contained either 2 mg/ml bupivacaine hydrochloride or 1 mg/ml concentration of the compounds listed in Table 2 of the present application. Each group consisted of 10 rats. A Von Frey fiber with a 100-gram force was attached to a needle for local skin stimulation. One minute after drug administration, the rat's response to the stimulus was measured. Testing was conducted at 6 different points within the marked area of drug administration. Skin contraction, avoidance, and other behaviors following stimulation were observed and recorded. Three points in the center and three points around the circle were stimulated, and the number of skin contraction and avoidance behaviors was recorded as N6. […] Each compound was tested on 10 rats.
The source holds these as a separate data set.

Where [3] appears, read: 2 mg/ml, 5 ml/kg, single injection near the sciatic nerve of the rat, hot plate 50±0.1° C.
Where [4] appears, read: 1 mg/ml, 0.5 mL subcutaneous injection on the back, 10 rats.

Structures can show the parent of a compound that is named as a salt. Where two headings read alike, the source gives them in different places.

Regarding `CCCC[N+]1(CCCCNc2ccc(F)cc2)CCCC[C@H]1C(=O)Nc1c(C)cccc1C` (stereo partly drawn) [Compound of Example 3, (2S)-1-Butyl-2-((2,6-dimethylphenyl)carbamoyl)-1-(4-(p-fluorophenylamino)butyl)piperidine bromide], the “Onset Time/min” value (in the assay with sciatic nerve of the rat (setting [3]); in assay [2] (setting [4])) was 1 min throughout. Besides, the results for the Duration/h in assay [1] (Drug Concentration 0.3 mmol/L), in assay [1] (Drug Concentration 1 mmol/L) and in assay [2] (setting [4]) were 24 to 48 h, 48 to 72 h and 72 to 96 h, respectively.

On to `CCCC[N+]1(CCCCOc2cccc(C)c2)CCCC[C@H]1C(=O)Nc1c(C)cccc1C` (stereo partly drawn) [Compound of Example 5, (2S)-1-Butyl-2-((2,6-dimethylphenyl)carbamoyl)-1-(4-(m-tolyloxy)butyl)piperidine bromide], for which the Duration/h was 48 to 72 h in the assay on sciatic nerve of the rat (setting [3]), 24 to 48 h in assay [1] (Drug Concentration 0.3 mmol/L), 48 to 72 h in assay [1] (Drug Concentration 1 mmol/L) and 72 to 96 h in assay [2] (setting [4]). Also, the “Onset Time/min” value (in the assay with sciatic nerve of the rat (setting [3]); in assay [2] (setting [4])) was 1 min in each case.

`CCCC[N+]1(CCCCOc2c(C)cc(C)cc2C)CCCC[C@H]1C(=O)Nc1c(C)cccc1C` (stereo partly drawn) [Compound of Example 25, (2S)-1-Butyl-2-((2,6-dimethylphenyl)carbamoyl)-1-(4-(symmetricalmesityloxy)butyl)piperidine bromide]: the “Onset Time/min” value (in the assay on sciatic nerve of the rat (setting [3]); in assay [2] (setting [4])) was 1 min in each case. For the same molecule, the Duration/h lay within 24 to 48 h in assay [1] (Drug Concentration 0.3 mmol/L), 48 to 72 h in assay [1] (Drug Concentration 1 mmol/L) and 72 to 96 h in assay [2] (setting [4]).

Regarding `CCCC[N+]1(CCCCOc2ccccc2C)CCCC[C@H]1C(=O)Nc1c(C)cccc1C` (stereo partly drawn) [Compound of Example 30, (2S)-1-Butyl-2-((2,6-dimethylphenyl)carbamoyl)-1-(4-(o-tolyloxy)butyl)piperidine bromide], the Duration/h with sciatic nerve of the rat (rat, in vivo) was in the range of 72 to 96 h; in assay [1] (Drug Concentration 0.3 mmol/L), 24 to 48 h; in assay [1] (Drug Concentration 1 mmol/L), 48 to 72 h; in assay [2] (setting [4]) it was 72 to 96 h. The “Onset Time/min” value with sciatic nerve of the rat (rat, in vivo) was 1 min; in assay [2] (setting [4]), 1 min.

For the molecule `CCCC[N+]1(CCCCOc2ccccc2)CCCC[C@H]1C(=O)Nc1ccc(F)cc1` (stereo partly drawn) [Compound of Example 39, (2S)-1-Butyl-2-((4-fluorophenyl)carbamoyl)-1-(4-phenoxybutyl)piperidine bromide], the Duration/h fell in the range of 72 to 96 h in the assay with sciatic nerve of the rat (rat, in vivo); 24 to 48 h in assay [1] (Drug Concentration 0.3 mmol/L); 48 to 72 h in assay [1] (Drug Concentration 1 mmol/L); 72 to 96 h in assay [2] (setting [4]). In addition, the “Onset Time/min” value came to 1 min in the assay on sciatic nerve of the rat (rat, in vivo) and 1 min in assay [2] (setting [4]).

With `CCCCN1CCCC[C@H]1C(=O)Nc1c(C)cccc1C` [Levobupivacaine Hydrochloride, reference compound], the Duration/h was 3 h with sciatic nerve of the rat (setting [3]); 3 h in assay [2] (Drug Concentration 6.9 mmol/L, subcutaneous infiltration); 3 h in assay [2] (control at 2 mg/ml (6.9 mmol/L), 0.5 mL subcutaneous injection on the back).

In the case of “(2S)-1-Butyl-2-((4-fluorophenyl)carbamoyl)-1-(4-(m-tolyloxy)butyl)piperidine bromide [Compound of Example 22]”, in the assay on sciatic nerve of the rat (setting [3]), the Duration/h was in the range of 48 to 72 h and the “Onset Time/min” value worked out at 1 min. In addition, in assay [2] (setting [4]), the Duration/h was 48 to 72 h and the “Onset Time/min” value was 1 min.

These data come from patent US20250326755A1, “CYCLIC QUATERNARY AMMONIUM SALT COMPOUND, AND PREPARATION METHOD THEREFOR AND USE THEREOF” (YICHANG HUMANWELL PHARMACEUTICAL CO., LTD., priority 2022, published 2025).
